From ChEMBL document CHEMBL1201862, “PubChem BioAssay data set” (2004)
Calls of active or inactive are those of the source.

How the values were obtained:
[1] = target: Nuclear receptor subfamily 0 group B member 1 (Homo sapiens, UniProt P51843); assay type: functional, cell-based;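 further: HEK293T cells transfected with SF-1 and DAX-1 plus StAR promoter luciferase reporter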
cells = assay type: functional, cell-based
[2] = nonselective StAR promoter luciferase inhibitors – cell-based, luminescence, luciferase reporter, counter-screen for LRH-1 inverse agonist project, dose response (AID 651969); assay type: functional
[3] = target: Nuclear receptor subfamily 5 group A member 2 (Homo sapiens, UniProt O00482); assay type: functional, cell-based;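 further: HEK293T cells transfected with LRH-1 and a StAR promoter luciferase reporter; potency for inhibitors that lower LRH-1 driven reporter light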
Steroidogenic factor 1 = Steroidogenic factor 1 (Homo sapiens, UniProt Q13285); test: Counterscreen for inverse agonists of the liver receptor homolog-1 (LRH-1; NR5A2): Luminescence-based cell-based high throughput dose response assay to identify inverse agonists of the Steroidogenic Factor 1 Nuclear Receptor (SF1; NR5A1).; assay type: functional
[4] = HIV-1 AD8 envelope cell-cell fusion blockers – cherry-pick, dose response (AID 652062); assay type: functional, cell-based;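 further: luciferase signal from cell-cell fusion driven by HIV-1 clade B AD8 Env; potency is for inhibitors of fusion seen as a drop in luminescence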
[5] = blockers of HIV-1 ZM109 envelope-driven cell-cell fusion – HeLa effector, CEM target cells, luciferase, cherry-pick, dose response (AID 652058); assay type: functional, cell-based;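 further: luciferase signal from HIV-1 Env mediated cell-cell fusion of effector and target cells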
[6] = off-target signal loss in HeLa-CEM21 co-culture – HeLa F-luc CTL cells, cherry-picked, counter-screen for HIV-1 Env fusion inhibitor project, dose response (AID 652040); assay type: functional, cell-based;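 further: potency for signal decrease marking cytotoxic or nonspecific inhibition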
[7] = blockers of HIV-1 envelope-mediated cell-cell fusion – cherry-pick, dose response (AID 652057); assay type: functional, cell-based
[8] = Fluorescence-based cell-based high throughput dose response assay for inhibitors of the interaction of nucleotide-binding oligomerization domain containing 2 (NOD2) and the receptor-interacting serine-threonine kinase 2 (RIPK2).; assay type: functional; settings: Homo sapiens
[9] = target: SWI/SNF-related matrix-associated actin-dependent regulator of chromatin subfamily A member 2 (Homo sapiens, UniProt P51531); test: Luminescence-based cell-based high throughput dose response assay to identify activators of the function of SWI/SNF related, matrix associated, actin dependent regulator of chromatin, subfamily a, member 2 (SMARCA2, BRM).; assay type: functional
[10] = Counterscreen for activators of the function of SWI/SNF related, matrix associated, actin dependent regulator of chromatin, subfamily a, member 2 (SMARCA2, BRM): Luminescence-based cell-based high throughput dose response assay to identify non-selective compounds using the VP16 reporter assay.; assay type: functional
[11] = anti-trypanosomal activity in BESM host cells – imaging, CA-I/72 strain, bovine embryo skeletal muscle, dry powder, dose response (AID 651885); assay type: functional, cell-based
Beta-lactamase [12] = target: T1, Beta-lactamase (Pseudomonas aeruginosa, UniProt Q79MP6); test: […] counterscreen for selective VIM-2 inhibitors: dose response biochemical high throughput screening assay to identify inhibitors of IMP-1 metallo-beta-lactamase.
Beta-lactamase [13] = target: T1, Beta-lactamase; test: inhibition of IMP-1 beta-lactamase activity – biochemical, epi-absorbance, selectivity assay for VIM-2 inhibitor project, dose response (AID 1920)
Beta-lactamase [14] = target: Beta-lactamase (Salmonella choleraesuis (strain SC-B67), UniProt Q5J463); test: Epi-absorbance-based counterscreen for selective VIM-2 inhibitors: dose response biochemical high throughput screening assay to identify inhibitors of TEM-1 serine-beta-lactamase.
[15] = target: 72 kDa type IV collagenase (Homo sapiens, UniProt P08253); test: Dose Response validation of uHTS RPN11 inhibitor hits using a MMP-2 Fluorescence assay.; assay type: functional
[16] = target: 26S proteasome non-ATPase regulatory subunit 14 (Homo sapiens, UniProt O00487); test: inhibition of proteasome subunit RPN11 – biochemical, fluorescence polarization, uHTS hits, confirmation (AID 602368); assay type: functional
Prothrombin = Prothrombin (Bos taurus, UniProt P00735); test: thrombin protease inhibitors – biochemical, fluorescence polarization, uHTS hits, dose response (AID 602369); assay type: functional
Beta Lactamase = Beta Lactamase (Pseudomonas aeruginosa, UniProt Q932Y6); test: BLA reporter interference, concentration series – BLA reporter cells, FRET fluorescence, artefact control for NOD2-RIPK2 interaction inhibitor project, dose response (AID 651552); assay type: functional, cell-based
Fatty acid synthase [17] = target: T2, Fatty acid synthase (Homo sapiens, UniProt P49327); test: inhibition of human FAS-TE enzyme activity – biochemical, kinetic fluorescence intensity, dose response (AID 624326); assay type: functional;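 further: rate of fluorescence rise from hydrolysis of a fluorogenic O-methyl fluorescein ester substrate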
Fatty acid synthase [18] = target: T2, Fatty acid synthase; test: inhibition of human FAS-TE enzyme activity – biochemical, endpoint fluorescence intensity, uHTS hits, dose response (AID 624327); assay type: functional;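 further: fluorescence from hydrolysis of an O-methyl fluorescein acyl ester substrate by the enzyme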
[19] = target: T3, Probable nicotinate-nucleotide adenylyltransferase (Staphylococcus aureus (strain N315), UniProt P65502); assay type: functional, Staphylococcus aureus subsp. aureus N315; settings: read-out: IC50_Mean;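 on IC50 Mean: confirmatory dose-response retesting of NadD inhibitor hits first found in an ultra-high-throughput screen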
[20] = target: T3, Probable nicotinate-nucleotide adenylyltransferase; assay type: functional, Staphylococcus aureus subsp. aureus N315

T1 sequence (Q79MP6 whole entry): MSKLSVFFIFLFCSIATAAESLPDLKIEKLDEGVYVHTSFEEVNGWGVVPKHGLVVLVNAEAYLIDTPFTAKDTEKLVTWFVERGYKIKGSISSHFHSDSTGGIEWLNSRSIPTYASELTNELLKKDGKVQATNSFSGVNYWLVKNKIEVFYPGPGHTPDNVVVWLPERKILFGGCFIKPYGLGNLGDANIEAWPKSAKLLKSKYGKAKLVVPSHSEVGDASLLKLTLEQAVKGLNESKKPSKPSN
T2 sequence (P49327 whole entry): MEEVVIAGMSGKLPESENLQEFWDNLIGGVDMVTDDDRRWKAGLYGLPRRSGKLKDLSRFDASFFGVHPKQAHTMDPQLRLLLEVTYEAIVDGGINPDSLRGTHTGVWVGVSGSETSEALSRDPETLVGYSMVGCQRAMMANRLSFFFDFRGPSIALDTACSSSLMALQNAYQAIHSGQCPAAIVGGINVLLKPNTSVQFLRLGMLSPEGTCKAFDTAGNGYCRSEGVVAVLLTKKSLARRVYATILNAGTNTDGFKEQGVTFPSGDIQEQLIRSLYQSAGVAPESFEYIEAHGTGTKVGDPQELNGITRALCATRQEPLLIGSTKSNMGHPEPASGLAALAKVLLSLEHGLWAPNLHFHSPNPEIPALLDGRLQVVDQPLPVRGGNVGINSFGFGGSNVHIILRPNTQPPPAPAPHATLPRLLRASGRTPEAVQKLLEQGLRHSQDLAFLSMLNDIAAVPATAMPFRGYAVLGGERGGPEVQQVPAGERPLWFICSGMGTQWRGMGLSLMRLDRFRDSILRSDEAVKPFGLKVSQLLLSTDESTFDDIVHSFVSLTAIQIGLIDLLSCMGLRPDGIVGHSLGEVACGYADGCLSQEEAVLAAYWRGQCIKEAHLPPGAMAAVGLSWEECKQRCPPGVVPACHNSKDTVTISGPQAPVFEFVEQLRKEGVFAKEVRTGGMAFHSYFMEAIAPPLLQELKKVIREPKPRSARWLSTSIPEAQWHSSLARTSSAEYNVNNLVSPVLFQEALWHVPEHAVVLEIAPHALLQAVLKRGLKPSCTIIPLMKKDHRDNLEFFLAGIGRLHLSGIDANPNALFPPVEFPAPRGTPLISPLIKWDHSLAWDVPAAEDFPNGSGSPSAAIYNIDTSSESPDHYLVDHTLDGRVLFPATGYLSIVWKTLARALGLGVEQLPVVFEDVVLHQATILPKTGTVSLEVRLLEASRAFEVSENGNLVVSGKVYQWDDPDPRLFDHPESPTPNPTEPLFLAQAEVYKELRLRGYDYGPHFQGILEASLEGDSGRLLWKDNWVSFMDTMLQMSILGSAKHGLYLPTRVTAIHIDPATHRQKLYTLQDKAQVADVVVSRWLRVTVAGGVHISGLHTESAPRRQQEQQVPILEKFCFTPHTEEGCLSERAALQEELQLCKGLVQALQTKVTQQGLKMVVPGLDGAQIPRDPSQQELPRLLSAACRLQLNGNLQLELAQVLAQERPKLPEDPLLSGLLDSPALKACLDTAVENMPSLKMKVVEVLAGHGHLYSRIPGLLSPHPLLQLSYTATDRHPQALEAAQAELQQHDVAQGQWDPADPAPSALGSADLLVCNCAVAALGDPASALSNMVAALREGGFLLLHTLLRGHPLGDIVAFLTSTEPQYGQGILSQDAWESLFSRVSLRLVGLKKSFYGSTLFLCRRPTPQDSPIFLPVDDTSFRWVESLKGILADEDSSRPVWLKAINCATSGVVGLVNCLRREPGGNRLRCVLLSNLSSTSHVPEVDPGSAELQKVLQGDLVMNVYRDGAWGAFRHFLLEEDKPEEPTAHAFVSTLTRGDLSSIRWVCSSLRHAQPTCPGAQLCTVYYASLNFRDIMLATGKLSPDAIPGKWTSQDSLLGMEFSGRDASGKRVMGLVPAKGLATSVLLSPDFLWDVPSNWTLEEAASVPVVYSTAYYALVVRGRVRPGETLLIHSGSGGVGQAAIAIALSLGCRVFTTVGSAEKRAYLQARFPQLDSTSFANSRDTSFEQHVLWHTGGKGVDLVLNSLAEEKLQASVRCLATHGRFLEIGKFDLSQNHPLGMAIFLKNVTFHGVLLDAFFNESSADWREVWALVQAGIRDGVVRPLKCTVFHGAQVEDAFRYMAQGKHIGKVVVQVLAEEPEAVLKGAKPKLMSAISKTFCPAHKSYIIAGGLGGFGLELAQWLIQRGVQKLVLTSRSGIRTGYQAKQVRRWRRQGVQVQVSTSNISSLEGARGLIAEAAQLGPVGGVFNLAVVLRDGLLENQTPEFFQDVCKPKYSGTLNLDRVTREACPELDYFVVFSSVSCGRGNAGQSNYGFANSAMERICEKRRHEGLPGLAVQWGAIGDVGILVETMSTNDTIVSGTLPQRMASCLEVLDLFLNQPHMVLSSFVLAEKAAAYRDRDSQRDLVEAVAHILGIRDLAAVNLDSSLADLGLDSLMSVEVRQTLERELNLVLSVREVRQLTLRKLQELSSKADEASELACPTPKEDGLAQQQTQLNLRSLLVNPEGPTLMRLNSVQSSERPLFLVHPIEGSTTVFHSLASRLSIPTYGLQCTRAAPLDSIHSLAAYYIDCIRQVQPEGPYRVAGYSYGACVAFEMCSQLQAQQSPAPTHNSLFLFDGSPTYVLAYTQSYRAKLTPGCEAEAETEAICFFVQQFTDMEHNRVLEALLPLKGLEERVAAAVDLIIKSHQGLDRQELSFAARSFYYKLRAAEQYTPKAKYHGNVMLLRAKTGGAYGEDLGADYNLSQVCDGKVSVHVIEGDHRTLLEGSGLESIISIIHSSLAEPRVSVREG
Chain of Beta-lactamase (Salmonella choleraesuis (strain SC-B67), UniProt Q5J463) (Q5J463 whole entry): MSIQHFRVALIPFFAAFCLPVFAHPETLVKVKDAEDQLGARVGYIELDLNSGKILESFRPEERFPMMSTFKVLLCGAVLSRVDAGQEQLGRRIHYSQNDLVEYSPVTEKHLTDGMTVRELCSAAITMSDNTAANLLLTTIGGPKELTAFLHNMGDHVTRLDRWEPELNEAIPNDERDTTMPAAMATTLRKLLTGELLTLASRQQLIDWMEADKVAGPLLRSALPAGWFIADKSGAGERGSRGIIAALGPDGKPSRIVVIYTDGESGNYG
T3 sequence (P65502 whole entry): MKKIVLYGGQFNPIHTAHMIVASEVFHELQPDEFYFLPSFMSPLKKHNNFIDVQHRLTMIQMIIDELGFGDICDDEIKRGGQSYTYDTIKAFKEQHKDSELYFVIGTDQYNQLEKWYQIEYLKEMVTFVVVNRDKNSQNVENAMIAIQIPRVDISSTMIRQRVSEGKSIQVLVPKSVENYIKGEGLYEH
Chain of Nuclear receptor subfamily 5 group A member 2 (O00482 whole entry): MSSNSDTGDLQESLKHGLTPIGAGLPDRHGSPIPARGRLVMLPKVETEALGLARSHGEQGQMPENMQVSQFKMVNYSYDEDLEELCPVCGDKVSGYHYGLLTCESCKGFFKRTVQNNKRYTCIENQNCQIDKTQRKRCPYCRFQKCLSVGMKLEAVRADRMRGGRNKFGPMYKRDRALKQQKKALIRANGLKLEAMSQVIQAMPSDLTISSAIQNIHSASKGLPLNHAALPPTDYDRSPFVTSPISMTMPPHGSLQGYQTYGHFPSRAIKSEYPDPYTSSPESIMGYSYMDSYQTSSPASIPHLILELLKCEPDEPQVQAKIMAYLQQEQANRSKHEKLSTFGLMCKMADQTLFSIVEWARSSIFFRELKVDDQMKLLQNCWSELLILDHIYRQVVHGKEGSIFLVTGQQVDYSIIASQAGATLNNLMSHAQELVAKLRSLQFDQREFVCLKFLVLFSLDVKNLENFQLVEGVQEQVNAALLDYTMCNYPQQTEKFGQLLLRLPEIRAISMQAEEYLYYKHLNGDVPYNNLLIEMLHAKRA
Chain of 26S proteasome non-ATPase regulatory subunit 14 (O00487 whole entry): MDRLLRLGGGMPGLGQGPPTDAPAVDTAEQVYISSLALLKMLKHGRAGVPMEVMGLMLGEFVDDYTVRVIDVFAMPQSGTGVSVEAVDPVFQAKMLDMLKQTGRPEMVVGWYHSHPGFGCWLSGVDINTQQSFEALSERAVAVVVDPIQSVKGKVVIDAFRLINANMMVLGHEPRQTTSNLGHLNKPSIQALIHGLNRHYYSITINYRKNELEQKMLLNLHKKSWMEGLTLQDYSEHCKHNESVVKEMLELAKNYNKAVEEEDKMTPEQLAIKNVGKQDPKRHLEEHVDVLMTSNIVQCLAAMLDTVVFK
Chain of 72 kDa type IV collagenase (P08253 whole entry): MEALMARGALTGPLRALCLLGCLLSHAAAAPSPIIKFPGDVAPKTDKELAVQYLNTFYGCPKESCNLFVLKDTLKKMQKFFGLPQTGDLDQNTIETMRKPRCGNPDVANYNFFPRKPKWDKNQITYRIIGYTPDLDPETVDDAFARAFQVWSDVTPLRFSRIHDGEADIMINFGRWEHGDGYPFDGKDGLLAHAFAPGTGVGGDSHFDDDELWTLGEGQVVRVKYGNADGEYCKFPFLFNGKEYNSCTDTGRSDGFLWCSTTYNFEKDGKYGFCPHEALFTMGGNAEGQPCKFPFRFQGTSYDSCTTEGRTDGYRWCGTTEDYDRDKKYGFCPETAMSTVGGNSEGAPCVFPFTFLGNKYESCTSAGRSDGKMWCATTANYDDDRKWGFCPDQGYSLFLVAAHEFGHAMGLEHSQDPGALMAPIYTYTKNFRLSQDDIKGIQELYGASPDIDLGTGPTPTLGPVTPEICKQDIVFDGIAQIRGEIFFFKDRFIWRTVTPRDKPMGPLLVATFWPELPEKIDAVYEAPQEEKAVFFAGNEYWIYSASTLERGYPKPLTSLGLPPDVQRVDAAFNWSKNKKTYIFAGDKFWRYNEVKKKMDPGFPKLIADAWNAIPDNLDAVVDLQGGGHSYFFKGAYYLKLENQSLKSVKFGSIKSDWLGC
Chain of Beta Lactamase (Q932Y6 whole entry): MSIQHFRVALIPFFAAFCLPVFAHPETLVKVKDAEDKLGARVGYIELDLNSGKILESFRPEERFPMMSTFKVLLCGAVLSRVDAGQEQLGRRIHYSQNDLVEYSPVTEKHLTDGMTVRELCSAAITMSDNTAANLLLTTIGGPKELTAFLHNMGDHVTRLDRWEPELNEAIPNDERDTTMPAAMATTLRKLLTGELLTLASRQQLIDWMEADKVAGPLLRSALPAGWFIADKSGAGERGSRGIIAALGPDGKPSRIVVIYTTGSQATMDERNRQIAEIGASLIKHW

With `O=C(Nc1ccc(Cl)cn1)c1ccc2nccnc2c1` the IC50 [1] was > 67.6 µM (inactive) and the IC50 (cells) was > 67.6 µM (inactive).
For `Cc1cccc(NC(=O)COC(=O)Cc2cccs2)c1C`, the IC50 [2] was 35.9 µM (inactive), the IC50 [3] was 12.8 µM (inactive) and the IC50 (Steroidogenic factor 1) was 7.35 µM (active).
In the case of `COc1cccc(Cl)c1NC(=O)N1CCc2c([nH]c3ccccc23)C1C(F)(F)F` (stereo not drawn), the AC50 [4] is reported as 36.8 µM (active), the AC50 [5] is reported as 15 µM (active) and the AC50 [6] is reported as 2.65 µM (active). For the same molecule, the AC50 [7] was 4.56 µM (active).
With `CN(CC(=O)Nc1ccccc1Cl)C(=O)COC(=O)c1nc(Cl)c(Cl)c(Cl)c1Cl` the IC50 [8] was 8.62 µM (active), the EC50 [9] was > 91.2 µM (inactive) and the EC50 [10] was > 91.2 µM (inactive).
In the case of `CC(C)N(C)C(=O)c1cccc(NC(=O)c2ccncc2)c1OCCCN(C)C(=O)OC(C)(C)C`, the IC50 [11] is reported as 10.2 µM (inconclusive).
For `CCOC(=O)N=S(N)(=O)c1ccccc1` (stereo not drawn), the IC50 (Beta-lactamase [12]) was > 59.6 µM (inactive), the IC50 (Beta-lactamase [13]) was > 59.6 µM (inactive) and the IC50 (Beta-lactamase [14]) was > 59.6 µM (inactive).
In the case of `CN1C(=O)/C(=C\C=C2/CCCN2C)N(C)C1=S`, the IC50 [15] is reported as > 100 µM (inactive), the IC50 [16] is reported as 23.3 µM (active) and the IC50 (Prothrombin) is reported as 42.7 µM (active).
With `CCOC(=O)[C@]12Cc3ccc(C)cc3[C@H]1N(C1CCCCC1)C(=O)c1cc(OC)ccc12` the IC50 [8] was 2.32 µM (active), the IC50 (Beta Lactamase) was 19.1 µM (inactive) and the IC50 (Fatty acid synthase [17]) was 5.14 µM (active). For the same molecule, the IC50 (Fatty acid synthase [18]) was 5.7 µM (active).
With `CCc1cccc2c1NC(=O)C21N2CCCC2C(C(=O)c2ccc3ccccc3c2)C12C(=O)Nc1ccccc12` (stereo not drawn) the IC50 [19] was 35.7 µM (active) and the IC50 [20] was 16.2 µM (active).
For `COc1cc2c(cc1OC)C(C)N(C(=O)c1nccnc1C(=O)O)CC2` (stereo not drawn), the IC50 (Beta-lactamase [12]) was > 59.6 µM (inactive), the IC50 (Beta-lactamase [13]) was > 59.6 µM (inactive) and the IC50 (Beta-lactamase [14]) was > 59.6 µM (inactive).
